Test results: US20230167118A1, “DEGRADATION OF BRUTON'S TYROSINE KINASE (BTK) BY CONJUGATION OF BTK INIDBITORS WITH E3 LIGASE LIGAND AND METHODS OF USE” (BEIGENE, LTD., priority 2020, published 2023)

What was measured:
[1] = target: T1, BTK (Homo sapiens, UniProt Q06187); assay: Cell Degradation: BTK degradation in TMD-8 cells, HTRF assay; assay type: cell-based; conditions: 6 h treatment, IC50 (DC50) of BTK degradation
T1 construct: High control=Cell group with added DMSO and without compound, indicating microplate readings without BTK degradation; endogenous in cells; host or cells: TMD-8 cells
Outline: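 TMD-8 cells treated 6 h with 8-dose 6-fold dilutions in 0.2% DMSO, then lysed and BTK quantified by HTRF (665/620 nm). Degradation % normalised to high/low controls; DC50 from four-parameter fit, Dmax as maximal degradation.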

[2] = system: HEK-293 cells; assay: HEK-293 Cytotoxicity Assay (CellTiter-Glo); assay type: cell-based; conditions: Homo sapiens, HEK293, 72 h incubation, CellTiter-Glo luminescence
Outline: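 HEK-293 cells treated 72 h with 8 concentrations (4-fold dilutions, 0.2% DMSO final). Viability read by CellTiter-Glo luminescence; IC50 from four-parameter logistic fit of % inhibition.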

T1 sequence (Q06187 whole entry): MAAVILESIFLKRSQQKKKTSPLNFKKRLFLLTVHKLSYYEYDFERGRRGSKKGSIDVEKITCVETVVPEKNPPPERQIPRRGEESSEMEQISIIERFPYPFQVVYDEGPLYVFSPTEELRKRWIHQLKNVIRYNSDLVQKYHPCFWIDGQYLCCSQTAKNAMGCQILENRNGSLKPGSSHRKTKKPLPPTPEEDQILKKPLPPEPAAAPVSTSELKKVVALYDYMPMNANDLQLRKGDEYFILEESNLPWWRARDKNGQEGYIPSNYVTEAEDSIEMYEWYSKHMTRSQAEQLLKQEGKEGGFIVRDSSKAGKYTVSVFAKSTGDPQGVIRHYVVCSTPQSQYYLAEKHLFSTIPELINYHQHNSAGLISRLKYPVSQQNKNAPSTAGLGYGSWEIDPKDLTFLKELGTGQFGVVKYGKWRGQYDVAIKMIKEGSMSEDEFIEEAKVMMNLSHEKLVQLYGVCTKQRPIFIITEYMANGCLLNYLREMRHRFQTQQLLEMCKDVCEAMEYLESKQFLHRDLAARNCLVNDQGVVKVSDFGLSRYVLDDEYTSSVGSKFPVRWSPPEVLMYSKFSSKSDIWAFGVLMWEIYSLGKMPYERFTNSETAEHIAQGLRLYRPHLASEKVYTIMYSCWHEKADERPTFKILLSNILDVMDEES

| Structure (SMILES) | DC50 [1] | IC50 [2] |
| --- | --- | --- |
| Cc1cc(-c2ncnc3[nH]c(-c4ccc(N5CCN(CC6CCN(c7ccc(N8CCC(=O)NC8=O)cc7)CC6)CC5)nc4)cc23)c(F)cc1[C@@H](C)NC(=O)c1noc(C(C)(C)C)n1 [Example 131, (R)-5-(tert-butyl)-N-(1-(4-(6-(6-(4-((1-(4-(2,4-dioxotetrahydropyrimidin-1(2H)-yl)phenyl)piperidin-4-yl)methyl)piperazin-1-yl)pyridin-3-yl)-7H-pyrrolo[2,3-d]pyrimidin-4-yl)-5-fluoro-2-methylphenyl)ethyl)-1,2,4-oxadiazole-3-carboxamide] | 0.59 nM | > 10000 nM |
| Cc1cc(-c2ncnc3[nH]c(-c4ccc(N5CCN(CCC6CCN(c7ccc([C@H]8CCC(=O)NC8=O)cc7)CC6)CC5)nc4)cc23)ccc1[C@@H](C)NC(=O)c1nc(C(C)(C)C)no1 [Example 53, 3-(tert-butyl)-N-((R)-1-(4-(6-(6-(4-(2-(1-(4-((R)-2,6-dioxopiperidin-3-yl)phenyl)piperidin-4-yl)ethyl)piperazin-1-yl)pyridin-3-yl)-7H-pyrrolo[2,3-d]pyrimidin-4-yl)-2-methylphenyl)ethyl)-1,2,4-oxadiazole-5-carboxamide] | > 2000 nM | > 10000 nM |
| Cc1cc(-c2ncnc3[nH]c(-c4ccc(C5CCN(CC6CCN(c7ccc(N8CCC(=O)NC8=O)cc7)CC6)C5)cc4)cc23)ccc1[C@@H](C)NC(=O)c1nc(C(C)(C)C)no1 (stereo partly drawn) [Example 158, 3-(tert-butyl)-N-((1R)-1-(4-(6-(4-(1-((1-(4-(2,4-dioxotetrahydropyrimidin-1(2H)-yl)phenyl)piperidin-4-yl)methyl)pyrrolidin-3-yl)phenyl)-7H-pyrrolo[2,3-d]pyrimidin-4-yl)-2-methylphenyl)ethyl)-1,2,4-oxadiazole-5-carboxamide] | 1.12 nM | 4040 nM |
| Cc1cc(-c2ncnc3[nH]c(-c4ccc(N5CCN(CC6CCN(c7ccc(N8CCC(=O)NC8=O)cc7)CC6)CC5)nc4)cc23)ccc1[C@@H](C)NC(=O)c1cc(C(C)(C)C)on1 [Example 117, (R)-5-(tert-butyl)-N-(1-(4-(6-(6-(4-((1-(4-(2,4-dioxotetrahydropyrimidin-1(2H)-yl)phenyl)piperidin-4-yl)methyl)piperazin-1-yl)pyridin-3-yl)-7H-pyrrolo[2,3-d]pyrimidin-4-yl)-2-methylphenyl)ethyl)isoxazole-3-carboxamide] | 3.72 nM | > 10000 nM |
| Cc1cc(-c2ncnc3[nH]c(-c4ccc(N5CCN(CC6CCN(c7ccc(N8CCC(=O)NC8=O)cc7)CC6)CC5)cc4)cc23)ccc1CNC(=O)c1noc(C2(C(F)(F)F)CC2)n1 [Example 51, N-(4-(6-(4-(4-((1-(4-(2,4-dioxotetrahydropyrimidin-1(2H)-yl)phenyl)piperidin-4-yl)methyl)piperazin-1-yl)phenyl)-7H-pyrrolo[2,3-d]pyrimidin-4-yl)-2-methylbenzyl)-5-(1-(trifluoromethyl)cyclopropyl)-1,2,4-oxadiazole-3-carboxamide] | 0.38 nM | > 10000 nM |
| Cc1cc(-c2ncnc3[nH]c(-c4c(C)nn(C5CCN(CC6CCN(c7ccc(N8CCC(=O)NC8=O)cc7)CC6)CC5)c4C)cc23)ccc1[C@@H](C)NC(=O)c1cn(C(C)(C)C)nn1 [Example 121, (R)-1-(tert-butyl)-N-(1-(4-(6-(1-(1-((1-(4-(2,4-dioxotetrahydropyrimidin-1(2H)-yl)phenyl)piperidin-4-yl)methyl)piperidin-4-yl)-3,5-dimethyl-1H-pyrazol-4-yl)-7H-pyrrolo[2,3-d]pyrimidin-4-yl)-2-methylphenyl)ethyl)-1H-1,2,3-triazole-4-carboxamide] | 0.23 nM | > 10000 nM |
| Cc1cc(-c2ncnc3[nH]c(-c4ccc(N5CCN(CC6CCN(c7ccc(N8CCC(=O)NC8=O)cc7)CC6)CC5)nc4)cc23)ccc1[C@H](C)NC(=O)c1nc(C(C)(C)C)no1 [Example 148, (S)-3-(tert-butyl)-N-(1-(4-(6-(6-(4-((1-(4-(2,4-dioxotetrahydropyrimidin-1(2H)-yl)phenyl)piperidin-4-yl)methyl)piperazin-1-yl)pyridin-3-yl)-7H-pyrrolo[2,3-d]pyrimidin-4-yl)-2-methylphenyl)ethyl)-1,2,4-oxadiazole-5-carboxamide] | 134 nM | 278 nM |
| Cc1cc(-c2ncnc3[nH]c(-c4ccc(C5CC6CCC(C5)N6CC5CCN(c6ccc(N7CCC(=O)NC7=O)cn6)CC5)cc4)cc23)ccc1[C@@H](C)NC(=O)c1nc(C(C)(C)C)no1 (stereo partly drawn) [Example 182, 3-(tert-butyl)-N-((1R)-1-(4-(6-(4-(8-((1-(5-(2,4-dioxotetrahydropyrimidin-1(2H)-yl)pyridin-2-yl)piperidin-4-yl)methyl)-8-azabicyclo[3.2.1]octan-3-yl)phenyl)-7H-pyrrolo[2,3-d]pyrimidin-4-yl)-2-methylphenyl)ethyl)-1,2,4-oxadiazole-5-carboxamide] | 1.34 nM | 2220 nM |
| Cc1cc(-c2ncnc3[nH]c(-c4ccc(N5CCN(CC6CCN(c7ccc(N8CCC(=O)NC8=O)c(C)c7)CC6)CC5)cc4)cc23)ccc1[C@@H](C)NC(=O)c1nc(C(C)(C)C)no1 [Example 44, (R)-3-(tert-butyl)-N-(1-(4-(6-(4-(4-((1-(4-(2,4-dioxotetrahydropyrimidin-1(2H)-yl)-3-methylphenyl)piperidin-4-yl)methyl)piperazin-1-yl)phenyl)-7H-pyrrolo[2,3-d]pyrimidin-4-yl)-2-methylphenyl)ethyl)-12,4-oxadiazole-5-carboxamide] | 1.2 nM | > 10000 nM |
| Cc1cc(-c2ncnc3[nH]c(-c4ccc(N5CCN([C@H]6C[C@@H](c7ccc(N[C@@H]8CCC(=O)NC8=O)cc7)C6)CC5)nc4)cc23)ccc1[C@@H](C)NC(=O)c1nc(C(C)(C)C)no1 [Example 189, 3-(tert-butyl)-N-((R)-1-(4-(6-(6-(4-((1S,3s)-3-(4-(((R)-2,6-dioxopiperidin-3-yl)amino)phenyl)cyclobutyl)piperazin-1-yl)pyridin-3-yl)-7H-pyrrolo[2,3-d]pyrimidin-4-yl)-2-methylphenyl)ethyl)-1,2,4-oxadiazole-5-carboxamide] | > 2000 nM | > 10000 nM |
| C[C@@H](NC(=O)c1noc(C(C)(C)C)n1)c1ccc(-c2ncnc3[nH]c(-c4ccc(N5CCN(CC6CCN(c7ccc(N8CCC(=O)NC8=O)cc7)CC6)CC5)cc4)cc23)cc1CO [Example 118, (R)-5-(tert-butyl)-N-(1-(4-(6-(4-(4-((1-(4-(2,4-dioxotetrahydropyrimidin-1(2H)-yl)phenyl)piperidin-4-yl)methyl)piperazin-1-yl)phenyl)-7H-pyrrolo[2,3-d]pyrimidin-4-yl)-2-(hydroxymethyl)phenyl)ethyl)-1,2,4-oxadiazole-3-carboxamide] | 0.5 nM | > 10000 nM |
| Cc1cc(-c2ncnc3[nH]c(-c4ccc(N5CCN(CC6CCN(c7ccc(N8CCC(=O)NC8=O)c(C)c7)CC6)CC5)nc4)cc23)c(F)cc1[C@@H](C)NC(=O)c1noc(C(C)(C)C)n1 [Example 132, (R)-5-(tert-butyl)-N-(1-(4-(6-(6-(4-((1-(4-(2,4-dioxotetrahydropyrimidin-1(2H)-yl)-3-methylphenyl)piperidin-4-yl)methyl)piperazin-1-yl)pyridin-3-yl)-7H-pyrrolo[2,3-d]pyrimidin-4-yl)-5-fluoro-2-methylphenyl)ethyl)-1,2,4-oxadiazole-3-carboxamide] | 0.79 nM | > 10000 nM |
| Cc1cc(-c2ncnc3[nH]c(-c4ccc(N5CCN([C@H]6C[C@@H](c7ccc(N[C@H]8CCC(=O)NC8=O)cc7)C6)CC5)nc4)cc23)ccc1[C@@H](C)NC(=O)c1nc(C(C)(C)C)no1 [Example 188, 3-(tert-butyl)-N-((R)-1-(4-(6-(6-(4-((1R,3s)-3-(4-(((S)-2,6-dioxopiperidin-3-yl)amino)phenyl)cyclobutyl)piperazin-1-yl)pyridin-3-yl)-7H-pyrrolo[2,3-d]pyrimidin-4-yl)-2-methylphenyl)ethyl)-1,2,4-oxadiazole-5-carboxamide] | 3.03 nM | > 10000 nM |
| CC(C)(C)c1noc(C(=O)NCc2ccc(-c3ncnc4[nH]c(-c5ccc(C6CCN(CC7CCN(c8ccc(N9CCC(=O)NC9=O)cc8)CC7)CC6)cc5)cc34)cc2F)n1 [Example 23] | 0.87 nM | > 10000 nM |
| Cc1cc(-c2ncnc3[nH]c(-c4ccc(N5CCN(CC6CCN(c7cc(F)ccc7N7CCC(=O)NC7=O)CC6)CC5)cc4)cc23)ccc1[C@@H](C)NC(=O)c1nc(C(C)(C)C)no1 [Example 43, (R)-3-(tert-butyl)-N-(1-(4-(6-(4-(4-((1-(2-(2,4-dioxotetrahydropyrimidin-1(2H)-yl)-5-fluorophenyl)piperidin-4-yl)methyl)piperazin-1-yl)phenyl)-7H-pyrrolo[2,3-d]pyrimidin-4-yl)-2-methylphenyl)ethyl)-1,2,4-oxadiazole-5-carboxamide] | > 2000 nM | > 10000 nM |
| C[C@@H](NC(=O)c1noc(C(C)(C)C)n1)c1ccc(-c2ncnc3[nH]c(-c4ccc(N5CCN(CC6CCN(c7ccc(N8CCC(=O)NC8=O)cc7)CC6)CC5)cn4)cc23)cc1F [Example 108, (R)-5-(tert-butyl)-N-(1-(4-(6-(5-(4-((1-(4-(2,4-dioxotetrahydropyrimidin-1(2H)-yl)phenyl)piperidin-4-yl)methyl)piperazin-1-yl)pyridin-2-yl)-7H-pyrrolo[2,3-d]pyrimidin-4-yl)-2-fluorophenyl)ethyl)-1,2,4-oxadiazole-3-carboxamide] | 0.35 nM | > 10000 nM |
| Cc1cc(-c2ncnc3[nH]c(-c4ccc(OC5CCN(CC6CCN(c7ccc(N8CCC(=O)NC8=O)cc7)CC6)CC5)cc4)cc23)ccc1CNC(=O)c1nc(C(C)(C)C)no1 [Example 49, 3-(tert-butyl)-N-(4-(6-(4-((1-((1-(4-(2,4-dioxotetrahydropyrimidin-1(2H)-yl)phenyl)piperidin-4-yl)methyl)piperidin-4-yl)oxy)phenyl)-7H-pyrrolo[2,3-d]pyrimidin-4-yl)-2-methylbenzyl)-1,2,4-oxadiazole-5-carboxamide] | 1.3 nM | > 10000 nM |
